{
  "source": "patent US20210353783A1",
  "about": "“IMAGING AGENTS FOR RADIOLABELING EXOGENOUS AND ENDOGENOUS ALBUMIN” (CENTURION BIOPHARMA CORPORATION, priority 2018, published 2021)",
  "origin": "cited, not measured here",
  "key": {"[1]": {"molecular_target": "circulating albumin (Homo sapiens, UniProt P02768)", "sequence (P02768 25-609)": "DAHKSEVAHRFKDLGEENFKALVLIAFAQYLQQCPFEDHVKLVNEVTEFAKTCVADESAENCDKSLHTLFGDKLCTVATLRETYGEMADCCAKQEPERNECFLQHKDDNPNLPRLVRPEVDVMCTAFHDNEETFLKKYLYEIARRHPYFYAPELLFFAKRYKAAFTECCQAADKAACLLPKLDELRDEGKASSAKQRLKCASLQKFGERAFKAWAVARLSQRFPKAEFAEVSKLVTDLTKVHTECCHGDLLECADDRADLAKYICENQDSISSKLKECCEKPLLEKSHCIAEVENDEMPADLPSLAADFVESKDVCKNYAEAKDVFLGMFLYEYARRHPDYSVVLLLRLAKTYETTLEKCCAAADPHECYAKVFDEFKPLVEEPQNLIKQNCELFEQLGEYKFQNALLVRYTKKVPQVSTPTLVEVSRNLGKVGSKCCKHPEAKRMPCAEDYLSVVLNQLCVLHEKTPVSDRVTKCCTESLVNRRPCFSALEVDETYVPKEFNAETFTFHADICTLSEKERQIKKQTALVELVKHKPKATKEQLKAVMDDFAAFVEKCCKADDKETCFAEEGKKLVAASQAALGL"}, "[2]": {"details": "phase 1-3 clinical trials"}, "[3]": {"details": "human, after intravenous administration, bound to cysteine-34 of endogenous albumin"}},
  "data": [
    {"compound": "COc1cccc2c1C(=O)c1c(O)c3c(c(O)c1C2=O)C[C@@](O)(/C(CO)=N/NC(=O)CCCCCN1C(=O)C=CC1=O)C[C@@H]3O[C@H]1C[C@H](N)[C@H](O)[C@H](C)O1", "note": "[aldoxorubicin, (6-maleimidocaproyl)hydrazone derivative of doxorubicin]", "values": [
      {"measurement": "binding to circulating albumin", "setting": "[1]", "value": "rapidly and selectively bound to circulating albumin within a few minutes"},
      {"measurement": "cardiotoxicity", "setting": "[2]", "value": "lack of cardiotoxicity"},
      {"measurement": "increase in the maximum tolerated dose (MTD) compared to conventional doxorubicin", "setting": "[2]", "value": 3.5, "unit": "fold"},
      {"measurement": "t1/2 in man", "setting": "[3]", "value": "20 to 21", "unit": "h"}
    ]}
  ]
}
